This is an account of results in patent publication US8389541B2, “Inhibitors of protein tyrosine kinase activity” (MethylGene Inc., priority 2007, dated 2013).

One test concerns CNV progression. The test is described as follows: In vivo choroidal neovascularization (CNV) model, laser-induced. The note with it: Brown-Norway rats, intravitreal injection 30 and/or 100 nmol/eye on Day 1 and/or Day 3 and/or Day 7, CNV area on Day 10. An excerpt:
This test measures the capacity of compounds to inhibit CNV progression. CNV is the main cause of severe vision loss in patients suffering from age-related macular degeneration (AMD).
Male Brown-Norway rats (Japan Clea Co., Ltd.) were used in these studies.
Rats were anesthetized by intraperitoneal injection of pentobarbital, and the right pupil was dilated with 0.5% tropicamide and 0.5% phenylephrine hydrochloride. The right eye received 6 laser burns between retinal vessels using a slit lamp delivery system of Green laser Photocoagulator (Nidex Inc., Japan), and microscope slide glass with Heaton™ (AMO Inc) used as a contact lens. The laser power was 100 or 200 mW for 0.1 second and spot diameter was 100 μm. At the time of laser burn, bubble production was observed, which is an indication of rupture of Bruch's membrane which is important for CNV generation.
Rats were divided into the groups based on their body weight using SAS software (SAS institute Japan, R8.1) after laser irradiation (Day 0). After animals were anesthetized, and the right pupil dilated (as above mentioned), the right eye of the animal received the compound or vehicle by intravitreal injection (5 or 10 μL/eye) at doses of 30 and/or 100 nmol/eyeon Day 1 and/or Day 3 and/or Day 7. The compounds were dissolved or suspended in CBS, PBS, or other adequate vehicles before injection.
On Day 10, the animals were anesthetized with ether, and high molecular weight fluorescein isothiocyanate (FITC)-dextran (SIGMA, 2×10^6 MW) was injected via a tail vein (20 mg/rat). About 30 min after FITC-dextran injection, animals were euthanized by ether or carbon dioxide, and the eyes were removed and fixed with 10% formaline neutral buffer solution. After over 1 hour of fixation, RPE-choroid-sclera flat mounts were obtained by removing cornea, lens and retina from the eyeballs. The flat mounts were mounted in 50% glycerol on a microscope slide, and the portion burned by laser was photographed using a fluorescence microscope (Nikon Corporation, excitation filter:465-495 nm, absorption filter:515-555 nm). The CNV area was obtained by measurement of hyper-fluorescence area observed on the photograph using Scion image.
The average CNV area of 6 burns was used as an individual value of CNV area, and the average CNV area of compound treated group was compared with that of the vehicle-treated group. […]

The subject of a further test is MKN45 tumor. As to the kind of experiment: In vivo solid tumor disease model, MKN45. Set-up: species or system mice. The note with it: Mus musculus, MKN-45, po, read-out: Tumor Growth Inhibition (%); for inhibition in vivo at 20 mg/kg: MKN45, 20 mg/kg orally daily; for inhibition in vivo at 40 mg/kg: 336 h, MKN45, 40 mg/kg orally daily, 14 days.
Test [1] has as its target recombinant human c-Met/HGF receptor (Homo sapiens, UniProt P08581). As to the kind of experiment: In vitro receptor tyrosine kinase assay (DELFIA), c-Met/HGF receptor.
Another test has as its target T1, c-Met (Homo sapiens, UniProt P08581).
T1 construct: endogenous in cells; host or cells: MKN45 gastric carcinoma cells
As to the kind of experiment: Inhibition of c-Met phosphorylation in MKN45 cells (direct ELISA). Format: cell-based. The note with it: 3 h treatment, read-out: CMET ELISA IN MKN45 IC50. A digest of the protocol: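 MKN45 gastric carcinoma cells with amplified, constitutively active c-Met, grown 48 h and then treated with inhibitors for 3 h in triplicate. Lysates bound to plates and phospho-tyrosine detected by direct ELISA with chemiluminescence. IC50 from 4-parameter fit of triplicate means.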

A further test addresses T2, VEGF receptor KDR (Homo sapiens, UniProt P35968).
T2 construct: made in house; host or cells: Sf9 cells (Spodoptera frugiperda), baculovirus
As to the kind of experiment: In vitro receptor tyrosine kinase assay (DELFIA), VEGF receptor KDR. Format: biochemical. The note with it: GST-VEGFR2 806-1356, 0.6 uM ATP; read-out: VEGFR IC50.

The subject of another test is A549 cells. As to the kind of experiment: Wound healing assay in A549 cells (HGF-stimulated). The test is classed as cell-based. The note with it: Homo sapiens, last dose that inhibited gap closing by more than 25%, 24 h, read-out: A549 WOUND_HEALING IC50. A digest of the protocol: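 Confluent A549 cells in DMEM low glucose with 10% FBS were pre-treated with inhibitors (0.00032-10 uM) for 3 h, then scratch-wounded. Migration was stimulated with HGF-containing conditioned medium from 293T cells over-expressing human HGF, and culture continued for 24 h; a control was run on every plate.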

The next test has as its system DU145 cells. As to the kind of experiment: Scatter assay in DU145 cells (HGF-stimulated). Format: cell-based. The note with it: Homo sapiens, DU-145, last dose that created an inhibitory effect on scattering, 24 h, read-out: DU145 SCATT. INHIB IC50. A digest of the protocol: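 DU145 prostate carcinoma cells were grown 48 h in MEM/10% FBS to form compact colonies, pre-treated with inhibitors (0.00032-10 uM) for 3 h, then stimulated with human HGF-containing 293T conditioned medium for 24 h. IC50 was taken as the last dose giving inhibition of scattering.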

The IC50 is the concentration needed to halve the response being measured.

Read-outs that look alike come from different tables or passages of the source. A value given as a limit tells only on which side of the number the result lay.

recombinant human c-Met/HGF receptor, sequence (P08581 1078-1337): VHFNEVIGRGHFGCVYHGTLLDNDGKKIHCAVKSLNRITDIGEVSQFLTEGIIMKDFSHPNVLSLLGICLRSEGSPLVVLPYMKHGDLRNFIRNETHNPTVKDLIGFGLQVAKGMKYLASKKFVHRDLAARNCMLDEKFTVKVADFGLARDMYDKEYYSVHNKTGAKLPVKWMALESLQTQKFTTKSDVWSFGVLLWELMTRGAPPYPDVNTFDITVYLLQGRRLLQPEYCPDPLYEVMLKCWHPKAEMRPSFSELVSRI
T2 sequence (P35968 806-1356): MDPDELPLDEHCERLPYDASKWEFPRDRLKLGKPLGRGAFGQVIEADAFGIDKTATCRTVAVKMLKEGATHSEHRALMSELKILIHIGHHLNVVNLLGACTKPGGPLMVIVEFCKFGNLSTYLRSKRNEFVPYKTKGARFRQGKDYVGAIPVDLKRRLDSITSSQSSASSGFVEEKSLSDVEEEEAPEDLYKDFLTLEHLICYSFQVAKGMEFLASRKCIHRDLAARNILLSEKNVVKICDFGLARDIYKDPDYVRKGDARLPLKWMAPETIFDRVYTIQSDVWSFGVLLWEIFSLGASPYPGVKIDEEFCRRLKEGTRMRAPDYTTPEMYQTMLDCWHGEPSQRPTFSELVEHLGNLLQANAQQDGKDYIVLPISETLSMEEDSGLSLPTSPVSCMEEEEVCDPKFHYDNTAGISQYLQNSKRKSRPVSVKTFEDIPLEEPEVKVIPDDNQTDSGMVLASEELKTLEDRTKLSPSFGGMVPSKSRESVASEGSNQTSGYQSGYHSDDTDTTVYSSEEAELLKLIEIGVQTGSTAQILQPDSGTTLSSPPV
T1 sequence (P08581 25-1390): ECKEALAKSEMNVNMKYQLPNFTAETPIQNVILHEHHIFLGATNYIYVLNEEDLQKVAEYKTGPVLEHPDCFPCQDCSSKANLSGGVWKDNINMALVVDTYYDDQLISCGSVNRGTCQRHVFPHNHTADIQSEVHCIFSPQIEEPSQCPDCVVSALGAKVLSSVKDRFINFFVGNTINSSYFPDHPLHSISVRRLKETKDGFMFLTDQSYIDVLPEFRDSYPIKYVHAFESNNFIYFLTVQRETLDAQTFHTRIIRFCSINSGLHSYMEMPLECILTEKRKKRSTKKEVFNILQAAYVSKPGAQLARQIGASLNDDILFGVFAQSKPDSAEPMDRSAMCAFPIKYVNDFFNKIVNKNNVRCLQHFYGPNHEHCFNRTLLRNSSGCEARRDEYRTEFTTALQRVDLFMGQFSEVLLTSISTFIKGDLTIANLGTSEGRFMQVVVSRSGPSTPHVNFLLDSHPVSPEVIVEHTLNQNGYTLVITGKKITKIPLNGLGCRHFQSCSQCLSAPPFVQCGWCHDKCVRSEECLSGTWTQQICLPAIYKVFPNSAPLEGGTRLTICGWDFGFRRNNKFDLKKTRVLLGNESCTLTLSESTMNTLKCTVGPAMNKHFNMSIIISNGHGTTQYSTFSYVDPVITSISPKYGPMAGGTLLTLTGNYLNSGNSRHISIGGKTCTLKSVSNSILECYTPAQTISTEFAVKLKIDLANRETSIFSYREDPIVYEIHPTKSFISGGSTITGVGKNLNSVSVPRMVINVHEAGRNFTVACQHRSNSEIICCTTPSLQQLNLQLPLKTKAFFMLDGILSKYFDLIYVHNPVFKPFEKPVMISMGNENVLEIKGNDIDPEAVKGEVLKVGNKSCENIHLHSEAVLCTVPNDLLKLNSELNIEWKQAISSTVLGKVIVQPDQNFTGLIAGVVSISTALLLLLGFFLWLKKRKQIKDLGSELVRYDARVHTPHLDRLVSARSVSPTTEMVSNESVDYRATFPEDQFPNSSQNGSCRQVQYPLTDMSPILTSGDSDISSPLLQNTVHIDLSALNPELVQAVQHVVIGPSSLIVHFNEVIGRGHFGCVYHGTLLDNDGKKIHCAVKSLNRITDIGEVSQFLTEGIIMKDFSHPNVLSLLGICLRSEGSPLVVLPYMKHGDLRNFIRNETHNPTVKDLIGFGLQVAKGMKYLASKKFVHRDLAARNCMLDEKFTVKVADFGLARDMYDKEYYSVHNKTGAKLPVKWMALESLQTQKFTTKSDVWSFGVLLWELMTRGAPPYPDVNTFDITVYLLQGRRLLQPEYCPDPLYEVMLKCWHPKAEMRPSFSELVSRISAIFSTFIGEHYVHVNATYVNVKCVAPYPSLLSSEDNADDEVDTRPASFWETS

Regarding `NCCCOCCOCCOCCCNCc1ccc(-c2cc3nccc(Oc4ccc(NC(=O)Nc5cc(C(F)(F)F)ccc5F)cc4F)c3s2)nc1` [177(284), 1-(4-(2-(5-(15-Amino-6,9,12-trioxa-2-azapentadecyl)pyridin-2-yl)thieno[3,2-b]pyridin-7-yloxy)-3-fluorophenyl)-3-(2-fluoro-5-(trifluoromethyl)phenyl)urea], in the test on CNV progression, the “% Inhibition of CNV Progression” value was “A (greater than or equal to 30% inhibition)”.
Same read-out and setting: with `COCCNCc1ccc(-c2cc3nccc(Oc4ccc(NC(=O)Nc5cc(C(C)(C)C)on5)cc4F)c3s2)nc1` [145(252), 1-(5-tert-butylisoxazol-3-yl)-3-(3-fluoro-4-(2-(5-((2-methoxyethylamino)methyl)pyridin-2-yl)thieno[3,2-b]pyridin-7-yloxy)phenyl)urea] the entry was “B (≧10% to <30% inhibition)”; with `CN(C(=O)CC(=O)Nc1ccc(Oc2ccnc3cc(-c4ccc(CNCCS(C)(=O)=O)cc4)sc23)c(F)c1)c1ccccc1` [80(187), N1-(3-fluoro-4-(2-(4-((2-(methylsulfonyl)ethylamino)methyl)phenyl)thieno[3,2-b]pyridin-7-yloxy)phenyl)-N3-methyl-N3-phenylmalonamide], “A (greater than or equal to 30% inhibition)”.
For the compound `COC[C@H](C)NCc1cccc(-c2cc3nccc(Oc4ccc(NC(=S)NC(=O)Cc5ccc(F)cc5)cc4F)c3s2)c1` [drawing 361], the inhibition in vivo at 20 mg/kg in the test on MKN45 tumor (168 h, 7 days) fell in the range of 25 to 50%.
Turning to `COCCNCc1ccc(-c2cc3nccc(Oc4ccc(NC(=O)CC(=O)N(C)c5ccccc5)cc4F)c3s2)nc1` [116(223), N1-(3-fluoro-4-(2-(5-((2-methoxyethylamino)methyl)pyridin-2-yl)thieno[3,2-b]pyridin-7-yloxy)phenyl)-N3-methyl-N3-phenylmalonamide], the “% Inhibition of CNV Progression” value in the test with CNV progression is recorded as “B (≧10% to <30% inhibition)”.
`COCCNCc1cnc(-c2cc3nccc(Oc4ccc(NC(=O)CC(=O)Nc5ccccc5)cc4F)c3s2)n1C` [13(49), N^1-(3-Fluoro-4-(2-(5-((2-methoxyethylamino)methyl)-1-methyl-1H-imidazol-2-yl)thieno[3,2-b]pyridin-7-yloxy)phenyl)-N^3-phenylmalonamide]: the “% Inhibition of CNV Progression” value with CNV progression is reported as “A (greater than or equal to 30% inhibition)”.
For the compound `COCCNCc1ccc(-c2cc3nccc(Oc4ccc(NC(=O)NC5CC5)cc4F)c3s2)nc1` [170(277), 1-Cyclopropyl-3-(3-fluoro-4-(2-(5-((2-methoxyethylamino)methyl)pyridin-2-yl)thieno[3,2-b]pyridin-7-yloxy)phenyl)urea], the “% Inhibition of CNV Progression” value with CNV progression is “A (greater than or equal to 30% inhibition)”.
For the compound `COCCNCCn1cc(-c2cc3nccc(Oc4ccc(NC(=O)CC(=O)N(C)c5ccccc5)cc4F)c3s2)cn1` [drawing 369], in the test on MKN45 tumor, the inhibition in vivo at 40 mg/kg is below 25%.
For the compound `COCCNCc1ccc(-c2cc3nccc(Oc4ccc(NC(=S)NC(=O)Cc5ccccc5OC)cc4F)c3s2)nc1` [drawing 365], the inhibition in vivo at 20 mg/kg in the test with MKN45 tumor (192 h, 8 days) was 25 to 50%.
Regarding `C=CCNC(=O)Nc1ccc(Oc2ccnc3cc(-c4ccc(CNCCOC)cn4)sc23)c(F)c1` [167(274), 1-allyl-3-(3-fluoro-4-(2-(5-((2-methoxyethylamino)methyl)pyridin-2-yl)thieno[3,2-b]pyridin-7-yloxy)phenyl)urea], the “% Inhibition of CNV Progression” value with CNV progression is “A (greater than or equal to 30% inhibition)”.
Regarding `COCCNCc1ccc(-c2cc3nccc(Oc4ccc(NC(=S)NC(=O)Cc5ccccc5)cc4F)c3s2)cn1` [drawing 362], the inhibition in vivo at 20 mg/kg with MKN45 tumor (192 h, 8 days) was below 25%.
Consider `COCCNCc1ccc(-c2cc3nccc(Oc4ccc(NC(=O)Nc5cccc(C)c5)cc4F)c3s2)nc1` [161(268), 1-(3-fluoro-4-(2-(5-((2-methoxyethylamino)methyl)pyridin-2-yl)thieno[3,2-b]pyridin-7-yloxy)phenyl)-3-m-tolylurea], for which the “% Inhibition of CNV Progression” value with CNV progression is “B (≧10% to <30% inhibition)”.
Same read-out and setting: with `CCOCCNCc1ccc(-c2cc3nccc(Oc4ccc(NC(=O)Nc5cc(C)ccc5F)cc4F)c3s2)nc1` [173(280), 1-(4-(2-(5-((2-ethoxyethylamino)methyl)pyridin-2-yl)thieno[3,2-b]pyridin-7-yloxy)-3-fluorophenyl)-3-(2-fluoro-5-methylphenyl)urea] the entry was “A (greater than or equal to 30% inhibition)”.
On to `COCCNCc1cnc(-c2cc3nccc(Oc4ccc(NC(=O)CC(=O)Nc5ccccc5)cc4F)c3s2)n1C` [drawing 372], for which the inhibition in vivo at 20 mg/kg with MKN45 tumor (312 h, 13 days) is 25 to 50%. For the same compound, the inhibition in vivo at 40 mg/kg with MKN45 tumor fell in the range of 25 to 50%.
As for `CS(=O)(=O)CCNCc1cccc(-c2cc3nccc(Oc4ccc(NC(=S)NC(=O)Cc5ccc(F)cc5)cc4F)c3s2)c1`, the half-inhibitory concentration (IC50) was below 250 nM in test [1]; below 250 nM on c-Met; below 250 nM on VEGF receptor KDR; above 1000 nM with A549 cells; above 1000 nM with DU145 cells.
For the compound `COCCNCc1ccc(-c2cc3nccc(Oc4ccc(NC(=S)NC(=O)Cc5ccc(F)cc5)cc4F)c3s2)cn1` [drawing 363], the inhibition in vivo at 20 mg/kg in the test on MKN45 tumor (192 h, 8 days) lay in the range of 25 to 50%.
For `CN(C)CCOC(=O)N1CC=C(c2cc3nccc(Oc4ccc(NC(=S)NC(=O)Cc5ccccc5)cc4F)c3s2)CC1`, the IC50 (in test [1]; at c-Met; at VEGF receptor KDR; in the test on A549 cells; with DU145 cells) was below 250 nM throughout.
Regarding `COCCNCc1ccc(-c2cc3nccc(Oc4ccc(NC(=O)C5(C(=O)Nc6ccccc6)CC5)cc4F)c3s2)nc1` [drawing 350], the IC50 (in test [1]; on c-Met; at VEGF receptor KDR; in the test with A549 cells; with DU145 cells) was below 250 nM each time.
For the compound `COC[C@H](C)NCc1ccc(-c2cc3nccc(Oc4ccc(NC(=S)NC(=O)Cc5ccccc5)cc4F)c3s2)cc1`, the IC50 was below 250 nM in test [1]; 250 to 500 nM at c-Met; below 250 nM on VEGF receptor KDR; 250 to 500 nM with A549 cells; 250 to 500 nM with DU145 cells.
Take `COCCNCc1ccc(-c2cc3nccc(Oc4ccc(NC(=O)C5(C(=O)Nc6ccccc6)CC5)cc4F)c3s2)cc1` [drawing 364]: the inhibition in vivo at 20 mg/kg in the test on MKN45 tumor (192 h, 8 days) is at least 75%.
Consider `CN(C)CCOC(=O)N1CC=C(c2cc3nccc(Oc4ccc(NC(=O)CC(=O)N(C)c5ccccc5)cc4F)c3s2)CC1`, for which the IC50 in test [1] was below 250 nM; on c-Met it was below 250 nM; on VEGF receptor KDR, below 250 nM; in the test on A549 cells, above 1000 nM; with DU145 cells it was 250 to 500 nM.
For the compound `COCCNCc1ccc(-c2cc3nccc(Oc4ccc(NC(=O)NC(=O)Cc5ccccc5OC)cc4F)c3s2)cc1`, the IC50 was below 250 nM in test [1]; 500 to 1000 nM at c-Met; below 250 nM at VEGF receptor KDR; 500 to 1000 nM in the test with A549 cells; above 1000 nM with DU145 cells.
For the compound `COCCNCc1cccc(-c2cc3nccc(Oc4ccc(NC(=S)NC(=O)Cc5ccccc5OC)cc4F)c3s2)c1`, the IC50 in test [1] was below 250 nM; on c-Met it was below 250 nM; on VEGF receptor KDR, below 250 nM; in the test on A549 cells, 250 to 500 nM; in the test with DU145 cells, 250 to 500 nM.
